From patent US20060142247A1, “Tricyclic heterocycles” (priority 2004, published 2006) come the findings set out here.

This assay concerns the target T1, Aurora A (Homo sapiens, UniProt O14965).
T1 construct: C-terminally Histidine4 (His4)-tagged Aurora A full-length protein; His4 (C)
T1 sequence (O14965 1-403): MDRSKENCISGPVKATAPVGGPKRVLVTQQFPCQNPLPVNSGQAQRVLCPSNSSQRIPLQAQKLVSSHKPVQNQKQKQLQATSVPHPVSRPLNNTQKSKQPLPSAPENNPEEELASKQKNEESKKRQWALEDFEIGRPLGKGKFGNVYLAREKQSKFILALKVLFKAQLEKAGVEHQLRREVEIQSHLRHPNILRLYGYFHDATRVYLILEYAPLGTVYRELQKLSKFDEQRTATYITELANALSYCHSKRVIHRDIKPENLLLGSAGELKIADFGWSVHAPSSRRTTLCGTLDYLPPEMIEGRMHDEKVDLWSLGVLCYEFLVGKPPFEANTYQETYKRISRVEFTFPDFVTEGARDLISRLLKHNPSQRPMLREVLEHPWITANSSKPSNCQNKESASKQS
Kind of assay: IC50 determination for inhibitors of Aurora A (96 MTP-ELISA). It is filed as biochemical. The settings on record: His4-tagged full-length Aurora A 250 ng/ml, PKB-GSK2 200 nM, ATP 4 μM, 90 min room temperature, read-out: IC50 Aurora A kinase inhibition. As for the experimental part: Aurora A is a serine threonine kinase involved in spindle assembly and chromosome segregation. The assay is a typically ELISA-type assay where biotinylated substrate (PKB-GSK2) is phosphorylated. Phosphorylation is detected by peroxidase (POD) labelled polyclonal antibody (PAK<M-Ig>S-IgG-POD) and phosphopeptide monoclonal antibody (Mab) (MAK<P-GSK>M-27E5-IgG). The assay is validated for IC50-determination.
Assay plates: 96-well polystyrene plates, streptavidin-coated,
Samples: 10 mM in dimethylsulfoxide (DMSO)
Aurora A-His-4: C-terminally Histidine4 (His4)-tagged Aurora A full-length protein, stock solution 0.7 mg/ml, final conc.: 250 ng/ml
PKB-GSK2: biotinylated peptide derived from human GSK3-alpha sequence (Biotin-SGRARTSSFAEPGG-CONH2), stock solution 600 μM, final conc.: 200 nM
PAK<M-Ig>S-IgG-POD: Anti-mouse IgG, horse radish peroxidase(HRP)-linked Antibody, diluted in 3% BSA/PBS-T (1:10000), (Cell Signaling, Cat. No.: 7076)
MAK<P-GSK>M-27E5-IgG: Phospho-GSK-3-alpha (Ser 21) (27E5) Monoclonal Antibody, stock solution 1.85 mg/ml, diluted in 3% BSA/PBS-T (1:6000), final conc.: 0.31 μg/ml, (Cell Signaling, Cat. No.: 9337B)
ATP: Adenosine-5′-triphosphate 1 mM, diluted in kinase buffer, (Roche Diagnostics GmbH, Cat. No.: 127531-001,), final conc.: 4 μM
TRIS: 2-Amino-2-hydroxymethyl-1,3-propoanediol (“tris-(hydroxymethyl)-aminomethane”) (MERCK, Cat. No.: 108382.2500)
BSA: Bovine Serum Albumin Fraction V, fatty acid free (Roche Diagnostics GmbH, Cat. No. 9100221)
EDTA Titriplex III (di-Sodium-EDTA di-Hydrate), 120 mM, (MERCK, Cat. No.: 1.08418.1000)
ABTS buffer: ABTS (2,2′-azino-bis(3-ethylbenzthiazoline-6-sulfonic acid)) 16.7 mg/ml (Roche Diagnostics GmbH, Cat. No.: 1204530) • ABTS tablets: dissolve one ABTS tablet in 50 ml of working solution (ABTS buffer) (Roche Diagnostics GmbH, Cat. No.: 1112422 ) • Tween 20: Polysorbat 20 (Roche Diagnostics GmbH, Cat. No.: 10006394-001) • DTT: 1,4-Dithiothreitol (Roche Diagnostics GmbH, Cat. No.: 197777) • MgCl2×6H2O MERCK, Cat. No.: 105833.1000 • Kinase buffer: 50 mM TRIS, 10 mM MgCl2, 1 mM DTT, 0.1% Tween 20, pH 7.8 PBS-T (=Wash buffer) (PBS-T)10 g/l PBS(Phosphate buffered saline) with 0.033% Tween 20 • 3% BSA/PBS-T: 3% BSA dissolved in PBS-T Method
This assay is performed in 96-well format for IC50 determination with 5 samples (each with 8 concentrations by twofold testing), 100 μl incubation volume and the following plate layout:
S samples, with ATP, 1% DMSO, final conc.: a=100 μM, b=20 μM, c=4 μM, d=0.8 μM, e=0.16 μM, f=0.032 μM, g=0.0064 μM, h=0.00128 μM Step/Action • (1) Sample preparation: add 24 μl per well samples (descending sequence) diluted in kinase buffer to assay plate (final conc. for DMSO 1%). • 2. Add directly 16 μl Aurora-A-his-4 diluted in kinase buffer to assay plate. • 3. Add directly 40 μl per well PKB-GSK2/ATP mixture to assay plate, (final conc.: Aurora A=250 ng/ml, GSK2=200 nM, ATP=4 μM). Negative control: without ATP. • 4. Incubate assay plate for exactly 90 min at room temperature. • 5. Stop reaction by adding 20 μl EDTA in all wells. • 6. Wash assay plate 3× with 200 μl washing buffer per well. • 7. Add 100 μl MAK<P-GSK>M27E5-IgG (1:10000) and PAK<M-Ig>S-IgG-POD (1:6000) dissolved in 3% BSA/PBS-T to assay plate per well. • 8. Incubate assay plate for 60 min at room temperature. • 9. Wash assay plate 3× with 200 μl washing buffer per well • 10. Add 100 μl ABTS solution to assay plate per well, incubate for approx. 4 min at RT on MTP shaker. • 11. Measure absorption at 405/492 nm. • 12. Calculate % inhibition as: (1−(Esample−ENC)/(EPC−ENC))×100 1)
13. Calculate IC50 using a non-linear curve fit (XLfit software (ID Business Solution Ltd., Guilford, Surrey, UK))
In the case of `C=CCN1C(=O)C(C)(C)c2cc3nc(-c4n[nH]c5ccccc45)[nH]c3cc21` [Example 2, 5-Allyl-2-(1H-indazol-3-yl)-7,7-dimethyl-5,7-dihydro-3H-imidazo[4,5-f]indol-6-one], the 50% inhibitory concentration (IC50) was in the range of 1 to 100 nM.

With `CCN1C(=O)C(C)(C)c2cc3nc(-c4n[nH]c5ccccc45)[nH]c3cc21` [Example 3, 5-Ethyl-2-(1H-indazol-3-yl)-7,7-dimethyl-5,7-dihydro-3H-imidazo[4,5-f]indol-6-one], the concentration for half-maximal inhibition (IC50) was 1 to 100 nM.

Take `CCCN1C(=O)C(C)(C)c2cc3nc(-c4n[nH]c5ccccc45)[nH]c3cc21` [Example 5, 2-(1H-indazol-3-yl)-7,7-dimethyl-5-propyl-5,7-dihydro-3H-imidazo[4,5-f]indol-6-one]: the IC50 lay in the range of 1 to 100 nM.

Consider `CC(C)N1C(=O)C(C)(C)c2cc3nc(-c4n[nH]c5ccccc45)[nH]c3cc21` [Example 6, 2-(1H-indazol-3-yl)-5-isopropyl-7,7-dimethyl-5,7-dihydro-3H-imidazo[4,5-f]indol-6-one], for which the 50% inhibitory concentration (IC50) was 28 nM.

With `CC1(C)C(=O)N(CCCN2CCOCC2)c2cc3[nH]c(-c4n[nH]c5ccccc45)nc3cc21` [Example 7, 2-(1H-indazol-3-yl)-7,7-dimethyl-5-(3-morpholin-4-yl-propyl)-5,7-dihydro-3H-imidazo[4,5-f]indol-6-one], the half-inhibitory concentration (IC50) was 14 nM.

Take `CC1(C)C(=O)Nc2cc3[nH]c(-c4n[nH]c5ccccc45)nc3cc21` [Example 8, 2-(1H-indazol-3-yl)-7,7-dimethyl-5,7-dihydro-3H-imidazo[4,5-f]indol-6-one]: the half-maximal inhibitory concentration (IC50) fell in the range of 1 to 100 nM.

Regarding `O=C1Nc2cc3nc(-c4n[nH]c5ccccc45)[nH]c3cc2C12CCCC2` [Example 9, 2-(1H-indazol-3-yl)-spiro[7,7-cyclopentan-5,7-dihydro-3H-imidazo[4,5-f]indol]-6-one], the half-inhibitory concentration (IC50) lay in the range of 100 to 250 nM.

As to `CC1C(=O)Nc2cc3[nH]c(-c4n[nH]c5ccccc45)nc3cc21` (stereo not shown) [Example 11, 2-(1H-Indazol-3-yl)-7-methyl-5,7-dihydro-3H-imidazo[4,5-f]indol-6-one], the 50% inhibitory concentration (IC50) was 100 to 250 nM.

Take `CCC1C(=O)Nc2cc3nc(-c4[nH]nc5ccccc45)[nH]c3cc21` (stereo not shown) [Example 13, 7-Ethyl-2-(1H-indazol-3-yl)-5,7-dihydro-3H-imidazo[4,5-f]indol-6-one]: the IC50 is 100 to 250 nM.

Consider `C=CCCN1C(=O)C(C)(C)c2cc3nc(-c4n[nH]c5ccccc45)[nH]c3cc21` [Example 15, 5-But-3-enyl-2-(1H-indazol-3-yl)-7,7-dimethyl-5,7-dihydro-3H-imidazo[4,5-f]indol-6-one], for which the IC50 lay within 1 to 100 nM.

As to `COCCOCCN1C(=O)C(C)(C)c2cc3nc(-c4n[nH]c5ccccc45)[nH]c3cc21` [Example 17, 2-(1H-Indazol-3-yl)-5-[2-(2-methoxy-ethoxy)-ethyl]-7,7-dimethyl-5,7-dihydro-3H-imidazo[4,5-f]indol-6-one], the concentration for half-maximal inhibition (IC50) is 1 to 100 nM.

In the case of `CC1(C)C(=O)N(CCCN2CCCCC2)c2cc3[nH]c(-c4n[nH]c5ccccc45)nc3cc21` [Example 19, 2-(1H-Indazol-3-yl)-7,7-dimethyl-5-(3-piperidin-1-yl-propyl)-5,7-dihydro-3H-imidazo[4,5-f]indol-6-one], the half-maximal inhibitory concentration (IC50) was 1 to 100 nM.

Consider `CN(C)CCCN1C(=O)C(C)(C)c2cc3nc(-c4n[nH]c5ccccc45)[nH]c3cc21` [Example 21, 5-(3-Dimethylamino-propyl)-2-(1H-indazol-3-yl)-7,7-dimethyl-5,7-dihydro-3H-imidazo[4,5-f]indol-6-one], for which the half-maximal inhibitory concentration (IC50) lay in the range of 1 to 100 nM.

As to `CCOC(=O)CN1C(=O)C(C)(C)c2cc3nc(-c4n[nH]c5ccccc45)[nH]c3cc21` [Example 23, [2-(1H-Indazol-3-yl)-7,7-dimethyl-6-oxo-6,7-dihydro-3H-imidazo[4,5-f]indol-5-yl]-acetic acid ethyl ester], the 50% inhibitory concentration (IC50) fell in the range of 1 to 100 nM.

As for `CC1(C)C(=O)N(CC#N)c2cc3[nH]c(-c4n[nH]c5ccccc45)nc3cc21` [Example 24, [2-(1H-Indazol-3-yl)-7,7-dimethyl-6-oxo-6,7-dihydro-3H-imidazo[4,5-f]indol-5-yl]-acetonitrile], the half-maximal inhibitory concentration (IC50) was in the range of 1 to 100 nM.

With `CC1(C)C(=O)N(Cc2ccccc2)c2cc3[nH]c(-c4n[nH]c5ccccc45)nc3cc21` [Example 26, 5-Benzyl-2-(1H-indazol-3-yl)-7,7-dimethyl-5,7-dihydro-3H-imidazo[4,5-f]indol-6-one], the half-inhibitory concentration (IC50) was in the range of 100 to 250 nM.

Regarding `CC1(C)C(=O)N(Cc2ccc(S(C)(=O)=O)cc2)c2cc3[nH]c(-c4n[nH]c5ccccc45)nc3cc21` [Example 27, 2-(1H-Indazol-3-yl)-5-(4-methanesulfonyl-benzyl)-7,7-dimethyl-5,7-dihydro-3H-imidazol[4,5-f]indol-6-one], the IC50 lay within 1 to 100 nM.

For `CC1(C)C(=O)N(CCO[Si](C)(C)C(C)(C)C)c2cc3[nH]c(-c4n[nH]c5ccccc45)nc3cc21` [Example 28, 5-[2-(tert-Butyl-dimethyl-silanyloxy)-ethyl]-2-(1H-indazol-3-yl)-7,7-dimethyl-5,7-dihydro-3H-imidazo[4,5-f]indol-6-one], the half-inhibitory concentration (IC50) lay within 1 to 100 nM.

For the compound `CC1(C)C(=O)N(CCO)c2cc3[nH]c(-c4n[nH]c5ccccc45)nc3cc21` [Example 34, 5-(2-Hydroxy-ethyl)-2-(1H-indazol-3-yl)-7,7-dimethyl-5,7-dihydro-3H-imidazo[4,5-f]indol-6-one], the IC50 fell in the range of 1 to 100 nM.

On to `CC1(C)C(=O)N(CC(O)CO)c2cc3[nH]c(-c4n[nH]c5ccccc45)nc3cc21` (stereo not shown) [Example 35, 5-(2,3-Dihydroxy-propyl)-2-(1H-indazol-3-yl)-7,7-dimethyl-5,7-dihydro-3H-imidazo [4,5-f]indol-6-one], for which the half-maximal inhibitory concentration (IC50) was in the range of 1 to 100 nM.

Turning to `CC1(C)C(=O)N(CC(=O)O)c2cc3[nH]c(-c4n[nH]c5ccccc45)nc3cc21` [Example 36, [2-(1H-Indazol-3-yl)-7,7-dimethyl-6-oxo-6,7-dihydro-3H-imidazo[4,5-f]indol-5-yl]-acetic acid], the IC50 was in the range of 1 to 100 nM.

For the compound `CC1(C)C(=O)N(CC(N)=O)c2cc3[nH]c(-c4n[nH]c5ccccc45)nc3cc21` [Example 37, 2-[2-(1H-Indazol-3-yl)-7,7-dimethyl-6-oxo-6,7-dihydro-3H-imidazo[4,5-f]indol-5-yl]-acetamide], the IC50 was 1 to 100 nM.
